Laboratory results reported in patent US11447638B2, “Acetalanthraquinone derivatives useful for cellular staining” (BIOSTATUS LIMITED, priority 2016, dated 2022).

Experiments:
[1] = Absorption and fluorescence spectra of compounds in PBS or HEPES; format: physicochemical; conditions: for fluorescence emission, 540 nm (Ex in PBS): excited at 540 nm
Procedure: The compounds were exited at 540 nm and at the wavelength of their absorption peak 1 (λ1 nm). The far-red fluorescent DNA dye DRAQ5 was used as reference.
Compounds were dissolved in DMSO (Sigma) to 20 mM stock concentration. DRAQ5 (Biostatus Ltd) was used as a control anthraquinone agent dissolved in deionised water. Working solutions were prepared in PBS (phosphate buffered saline; Sigma) or HEPES (4-(2-hydroxyethyl)-1-piperazineethanesulfonic acid; Sigma) at 20 or 40 μM. Probe solutions (20 μM), respectively in PBS or HEPES, were pipetted into a 1 mL quartz cuvette (Thermo Fisher Scientific). After obtaining baseline spectra in relevant buffer to zero the instrument, absorbance measurements were obtained using a Beckmann Coulter DU 800 UV/Visible spectrophotometer. The excitation wavelengths were scanned from 280 to 800 nm. Fluorescent spectral scans were performed using a Perkin Elmer LS-50B Luminescence spectrophotometer. To obtain emission scans, the excitation wavelength was set accordingly to the maximum values for each agent or another designated excitation wavelength that matches typical laser lines; and the emission wavelength were scanned from 400 nm to 900 nm in 1 nm increments. A Xenon flash lamp was used as the light source, with the lamp energy set to high. For each data point ten measurements were acquired with the photomultiplier tube sensitivity set at 125.
Compounds were excited at a wavelength corresponding to the first absorbance peak 1 (FIG. 1A and FIG. 1B show absorption (line) and fluorescence (dots) spectra of compounds; both are normalised to peak value.

[2] = tested on: fixed human osteosarcoma U-2 OS cells; test: Labelling of fixed cells, wide-field fluorescence microscopy; format: cell-based; conditions: 20 μM, 1 h exposure in PBS, FIG. 2
Procedure: Cells were seeded in a 24 well coverslip bottomed-plate, cultured overnight in McCoys media. 24 or 48 hours later the cells were washed gently with 3×2 mL PBS per well. The PBS was removed and 0.5 mL of 4% paraformaldehyde solution [a 4% paraformaldehyde solution in PBS was made fresh each time from a 16% stock solution (Thermo Fisher Scientific)] was added in each well and cells were incubated for 30 min. The paraformaldehyde was removed and cells were washed 3×2 mL PBS per well. 1 mL of PBS or HEPES was added to each well.
(§1) Before analysis, cells were incubated at 37° C. in the dark for the period designated. Samples were analysed directly without any further washing step. For live cell labelling cells were seeded, plated in a similar way, into a similar multi-well dish for optimal optical performance and could be used across all microscope platforms.
(§2) This basic protocol was the standard for testing the patterns of AAQ agents at 20 μM, compared to 20 μM of DRAQ5 as the benchmark reference (both in terms of cellular location and ability to detect the red fluorescence).
Low resolution wide-field fluorescence microscopy was used to evaluate cell labelling in fixed human osteosarcoma U-2 OS cells. The system was an Axiovert 100 microscope (Carl Zeiss, Welwyn Garden City, UK) ×10 0.3 NA air objective lens and an ORCA-ER CCD camera (Hamamatsu, Reading, UK). Illumination was controlled by a shutter in front of the transmission lamp. Image capture was controlled using Metamorph software. This evaluates the ability of the compounds to label cellular compartments without active uptake or efflux prohibiting delivery into the given cell. Image collection was performed after 1 h of exposure to probes in PBS. The calibration bar represents 50 μm.

A549 live cells = test: Loading of A549 live cells, wide-field fluorescence microscopy; format: cell-based, human; conditions: 20 μM, 30 min incubation, FIG. 3
Procedure: as §1, §2
Low resolution wide-field fluorescence microscopy was used to evaluate cell uptake and localisation of the probe compounds. The system was an Axiovert 100 microscope (Carl Zeiss, Welwyn Garden City, UK) ×10 0.3 NA air objective lens and an ORCA-ER CCD camera (Hamamatsu, Reading, UK). Illumination was controlled by a shutter in front of the transmission lamp. Image capture was controlled using Metamorph software. Human non-small cell lung cancer A549 cell line was used as the cell model to determine whether variation of the probe loading and localisation occurred in cell population sustaining a “side population” (SP) (Smith P J, Wiltshire M, Chappell S C, Cosentino L, Burns P A, Pors K, Errington R J. Kinetic analysis of intracellular Hoechst 33342—DNA interactions by flow cytometry: misinterpretation of side population status? Cytometry A 2013; 83:161-9) with a known capacity to efflux xenobiotic molecules, including the DNA dye Hoechst 33342.
Cells were incubated for 30 min with each compound and then images were collected at a 30 ms exposure time using low resolution wide-field fluorescence microscopy. Using an Axiovert 100 microscope (Carl Zeiss, Welwyn Garden City, UK) ×10 0.3 NA air objective lens and an ORCA-ER CCD camera (Hamamatsu, Reading, UK). Illumination was controlled by a shutter in front of the transmission lamp. Image capture was controlled using Metamorph software. The calibration bar represents 50 μm.

U-2 OS cells = test: Confocal laser scanning microscopy (CLSM) localisation analysis; format: cell-based, human; conditions: 30 min incubation, Ex 637 nm, Em >665 nm, FIG. 4 and 5
Procedure: Confocal laser scanning microscopy (CLSM) was used to analyse the localisation of compounds BST-100, BST-101 and BST-106 with the U-2 OS cells, as it permitted the acquisition of volume limited optical sections through the cell and media. Excitation (637 nm) and emission (>665 nm) values for the probe analysis were the optimal conditions. The data sets obtained were processed and assembled into a single maximum projection image.
The patterns were analysed after 30 min incubation at different z depths and eliminating the solution background. The nucleus/cytoplasm ratio was calculated to quantify the localisation of the probe per cell.
A Radiance CLSM (BioRad Microscience) was used attached to an inverted Nikon microscope. Image acquisition was performed using excitation (637 nm) and emission (>665 nm) wavelengths. The histogram plot reports the nucleus/cytoplasm index to determine DNA binding in live cells. The calibration bar represents 10 μm.
The compounds BST-108, BST-109 were analysed in the same way.

A549 cells = test: Pulse exposure to probes, time-lapse, reimaged after 72 h; format: cell-based, human; conditions: 20 uM for 15 mins, washout, T=72 h
Procedure: In this regard, A549 cells were seeded in a 24 well coverslip bottomed-plate, cultured overnight in McCoys media for 24 or 48 hours. The plates were placed onto an inverted automated microscope, with the capacity for acquiring an image sequence of different wells (therefore exposure to different agent labelling). An Axiovert 100 microscope (Carl Zeiss, Welwyn Garden City, UK) was fitted with an incubator for 37° C./5% CO2 maintenance (Solent Scientific, Portsmouth, UK), and an ORCA-ER CCD camera (Hamamatsu, Reading, UK). Illumination was controlled by a shutter in front of the transmission lamp, and an x, y positioning stage with separate z-focus (Prior Scientific, Cambridge, UK) controlled multi-field acquisition. Image capture was controlled using Metamorph software.
Cells were exposed to a constant dose (0-5 μM) or a pulsed dose of 0 or 20 μM agent for 15 minutes followed by washout with warmed full media.
All images were collected with a ×10 (PH1) apochromat objective lens providing a field size of 500 times 500 microns. In this case a phase contrast image was collected every 30 minutes for 72 hours. Single cell growth and expansion can be tracked over time. The cells were harvested and run through a flow cytometry (typically a FACS Calibur 635 nm excitation/661/16 emission).
A549 cells were loaded with 20 uM BST-101, BST-109 or BST-110 for 15 mins followed by washout. Cells were then time-lapsed and reimaged after T=72 h, as before, […]

MCF7 = test: MTT cellular viability (growth inhibition) assay, MCF7; format: cell-based; conditions: Homo sapiens, 0.25-100 μM, 72 h, Table 3
Procedure: (§3) The viability of A549 or MCF7 in response to compounds was determined using the MTT (3-(4,5-dimethylthiazolyl-2-)-2, 5-diphenyltetrazolium bromide) assay according to the protocol set out in Mosmann T., Rapid colorimetric assay for cellular growth and survival: application to proliferation and cytotoxicity assays. Journal of immunological methods 1983; 65:55-63.
(§4) Initially, cells were seeded into a rounded-bottom 96 well plate (Corning) at six different cell seeding densities (0.5×104, 1×104, 2×104, 3×104, 4×104, and 5×104) per mL of R10 media (cells/mL) in order to optimise the assay and establish the most suitable seeding assay. Concentration of 1×10^4 cells/mL was determined to be the optimum seeding density for both cell lines for 96 h total incubation. A control lane contained supplemented R10 only. The 96 well plates were incubated overnight at 37° C., 5% CO2 and 100% humidity to allow cell adhesion. Cells were then treated respectively with novel AAQs (0.25-100 μM) or growth inhibition (IC50) of compounds of the invention was studied against MCF7 and A549 cancer cell lines. Compounds were tested with a concentration range between 0.25 and 100 μM for 72 h and doxorubicin, as positive cytotoxic control, was tested in parallel at the same doses.

A549 = test: MTT cellular viability (growth inhibition) assay, A549; format: cell-based; conditions: Homo sapiens, 0.25-100 μM, 72 h, Table 3
Procedure: as §3, §4

2780/cp70 = test: Further tests against cell lines, 2780/cp70; format: cell-based; conditions: ratio to A2780
MCP1 = test: Further tests against cell lines, MCP1; format: cell-based; conditions: ratio to A2780
Procedure: (§5) Further tests were carried out against A2780, 2780AD and MCP1 cell lines.

2780AD = test: Further tests against cell lines, 2780AD; format: cell-based; conditions: ratio to A2780
Procedure: as §5

peak excitation wavelength ([1]; excitation wavelength used for fluorescence spectra of FIG. 1A/1B) [nm]	fluorescence emission, 540 nm (Ex in PBS) ([1]; PBS, 20 μM) [nm]	IC50 (MCF7) [nM]	IC50 (A549) [µM]	fluorescence emission, λ1 nm (Ex in HEPES) ([1]; excited at absorption peak 1 (λ1), HEPES, 20 μM) [nm]	fluorescence emission, λ1 nm (Ex in PBS) ([1]; excited at absorption peak 1 (λ1), PBS, 20 μM) [nm]	Structure (SMILES)	staining pattern in fixed cells [2]	staining pattern in live cells (A549 live cells)	subcellular localisation by CLSM (U-2 OS cells)	cell division and signal retention / location after pulse exposure (A549 cells)	fluorescence brightness / background in fixed cells [2]	RF (2780/cp70)	RF (MCP1) (MCP1)	RF (2780AD)
540	712	750	> 100			COC(CCCCNc1ccc(NCCCCC(OC)OC)c2c1C(=O)c1ccccc1C2=O)OC [BST-101, 1,4-Bis(5,5-dimethoxypentylamino)anthracene-9,10-dione]	diffuse cytoplasmic staining, with some perinuclear and nucleoli labelling	heterogeneous cytoplasmic staining	low levels of probe in the perinuclear region, with probable overload in Golgi body and large vesicles	dividing, and signal retained in the same membrane compartment as at the start				
	690			684	688	COC(CNCCNc1ccc(NCCNCC(OC)OC)c2c1C(=O)c1c(O)ccc(O)c1C2=O)OC [BST-200, 1,4-bis((2-((2,2-dimethoxyethyl)amino)ethyl)amino)-5,8-dihydroxyanthracene-9,10-dione]	cytoplasmic staining, good object recognition, and some heterogeneity on nuclear staining	heterogeneity on cytoplasmic load on, with bright fluorescence signal and staining of mitotic figures			very bright fluorescence	0.09	0.26	2.9
						N.N.[Cl][Pt][Cl] [Cisplatin, reference compound]						5.37	1.26	4.6
